SMILES strings stand for the structures.

Experimental findings from US20220143143A1, “USE OF ACTIVATORS OF THE ARYL HYDROCARBON RECEPTOR FOR TREATING GLUTEN-INDUCED GASTROINTESTINAL DISEASES” (McMaster University, priority 2019, published 2022) are described below.

Assay type in all cases: in vivo
The test system of data set [1] is NOD/DQ8 mice. Nature of the data set: Fecal lipocalin-2 quantification. The note with it: gluten treated NOD/DQ8 mice; 1 μg/mouse i.p. at day 1, 10, 20 and 30; vs vehicle (DMSO).
A further data set relates to AhR pathway genes. As to the kind of experiment: qPCR expression of AhR pathway and inflammation genes in duodenum. Conditions: gluten treated NOD/DQ8 mice; 1 μg/mouse i.p. at day 1, 10, 20 and 30; vs vehicle (DMSO). Here is the method:
AhR activation in duodenal biopsies was measured through qPCR to assess the expression of AhR pathway genes: AhR, CYP1A1, IL-22 and IL-17. IL-15 gene expression was also measured by qPCR as an inflammation marker. Total RNA was isolated from mouse duodenum samples using RNeasy Mini Kit (Qiagen, Hilden, Germany) with the DNase treatment, according to the manufacturer's instructions. RNA concentration was determined using a NanoDrop spectrophotometer […]. Quantitative RT-PCR was performed using iScript Reverse Transcriptase (Bio-Rad) and then a SsoFast EvaGreen Supermix (Bio-Rad) in a Mastercycler ep realplex apparatus (Eppendorf) with specific mouse oligonucleotides. Additional information on the primers used is available in Table 2. qPCR data were analyzed using the 2-ΔΔCt quantification method with mouse Gapdh as the endogenous control.
For orientation: Real-time PCR tracks product formation cycle by cycle.

For data set [2], the system named is NOD/DQ8 mice. As to the kind of experiment: Histology and immunohistochemistry of proximal small intestine (V/C ratios, CD3+ IEL counts). Conditions: gluten treated NOD/DQ8 mice; 1 μg/mouse i.p. at day 1, 10, 20 and 30; vs vehicle (DMSO). Here is the method:
For histology and immunohistochemistry studies, cross-sections of the proximal small intestine were fixed in 10% formalin and embedded in paraffin. Enteropathy was determined by measuring villus-to-crypt (V/C) ratios in a blinded fashion. The presence of IELs (intraepithelial lymphocytes) in the sections was determined by immunostaining for CD3+ cells. Briefly, sections were stained with polyclonal rabbit anti-mouse CD3 (Dako) and in each section, and intraepithelial lymphocytosis was determined by counting CD3+ IELs per 20 enterocytes in five randomly chosen villus tips.

The subject of data set [3] is NOD/DQ8 mice. As to the kind of experiment: Gut barrier function by Ussing chamber technique (jejunum). Conditions: gluten treated NOD/DQ8 mice, 1 μg/mouse i.p. at day 1, 10, 20 and 30, vs vehicle (DMSO). Here is the method:
Gut barrier function was assessed by a Ussing chamber technique. Briefly, sections of jejunum from each mouse were mounted in a Ussing Chamber with an opening of 0.6 cm^2. Net active transport across the epithelium was measured via a short circuit current response (Isc, μA) injected through the tissue under voltage-clamp conditions. Baseline Isc (μA/cm^2) was recorded at equilibrium 20 min after mounting jejunum sections. Mucosal-to-serosal transport of macromolecules was assessed by adding ^51Cr-EDTA in the luminal side of the chamber. ^51Cr-EDTA fluxes were calculated by measuring the proportion of radioactive ^51Cr-EDTA detected in the serosal side of the chamber after 2 hours compared to the radioactive ^51Cr-EDTA placed in the luminal side at the beginning of experiment.

As to `O=Cc1c2c(cc3c1=Nc1ccccc1-3)=Nc1ccccc1-2` [Ficz, 6-formylindolo(3,2-b) carbazole], in the data set with NOD/DQ8 mice [1], the “other markers of overall gut inflammation (fecal lipocalin-2, FIG. 17)” value is listed as “improved”. Also, in the data set on AhR pathway genes, the “intestinal IL-15 expression” value is recorded as “did not affect” and the “intestinal expression of AhR target genes (Cyp1a1, Il22, Il17)” value is “even higher expression”. Moreover, in the data set on NOD/DQ8 mice [2], the IEL counts result is recorded as “improved” and the V/C ratios result is recorded as “improved”. Besides, in the data set on NOD/DQ8 mice [3] (51Cr-EDTA), the paracellular permeability result is “improved”. Also, the ion transport entry in the data set with NOD/DQ8 mice [3] is listed as “improved”.
